In one assay the test system is HBE cells. Put plainly: μOCT imaging of airway epithelial function in HBE cells containing WT-CFTR. The format is cell-based, human. Here is the method:
ASL depth is shown as red bar. White scale bar=10 μm.
FIGS. 4A-4D show the effects of CFTR activators on airway epithelial function in human bronchial epithelial cells by μOCT. Control HBE cells containing a defective CFTR (designated control, CF) and HBE cells containing a WT-CFTR (designated control and VX-770, wild-type) received vehicle alone (control; 0.2% DMSO) or ivacaftor (10 μM). FIGS. 4A-4D show ASL depth (FIG. 4A), PCL depth (FIG. 4B), cilia beat frequency (FIG. 4C), and mucociliary transport (MCT) rate (FIG. 4D) as quantified from μOCT images.
FIGS. 5A-5D show the effects of CFTR activators on airway epithelial function in human bronchial epithelial cells by μOCT. […] CSE was applied apically and ivacaftor basolaterally. Cells were exposed to each condition for 24 hrs. ASL depth is shown as a dark bar. White scale bar=10 μm. FIGS. 5B-5D show ASL depth (FIG. 5B), cilia beat frequency (FIG. 5C), and mucociliary transport (MCT) rate (FIG. 5D) as quantified from μOCT images. Data are derived from 5 measures per well, and 3 wells per condition.
The effect of CFTR activators was evaluated using μOCT imaging in HBE cells (FIGS. 4A-4D). […] Mucus and the PCL layer that together comprise the airway surface liquid (ASL) layer can also be clearly visualized. As shown in FIGS. 4A-4D, from top to bottom, the air has no μOCT signal, while the mucus layer appears heterogeneous with high μOCT signal intensity. The PCL gel has a low μCT signal intensity compared with the mucus and monolayer and includes ciliary structures. The air-liquid interface, mucus-PCL interface, and apical cell surface are clearly defined so that ASL and PCL heights can be directly measured with submicrometer resolution. In addition to the different layers, cilia tips can be readily detected by μOCT, as they are brighter than the surrounding PCL and mucus. The tips maintain contact with the deep surface of mucus blanket and lift the mucus nearby by a few hundred nanometers during the effective stroke.
The results in this example, illustrated in FIGS. 4A-4D, confirm the results shown above that CFTR activators increase the activity of WT-CFTR. In FIGS. 4A-4D, control HBE cells containing a defective CFTR (designated control, CF) were used along with HBE cells containing a WT-CFTR (designated control and VX-770, wild-type). Control cells received vehicle alone (0.2% DMSO); ivacaftor was used in all cases at 10 μM. […] In terms of PCL depth, the PCL only extends approximately 7 microns (corresponding to the depth of the full length cilia); further increases are difficult to detect. For CBF, the rate of CBF may not be rate limiting in all conditions. For example, if the cilia were beating against thick mucus (caused for example by mucus overproduction or the inability to clear mucus normally), the CBF would be slower. However, in this assays the determination of CBF is made versus a normal control making meaning an increase in CBF may not be detected in all cases.
Data in FIGS. 5A-5D are derived from 5 measurements per well, with three wells per condition. In FIGS. 5A-5D, all cells contained WT-CFTR; control cells received DMSO vehicle ([…]), CSE indicates cells received 2% CSE extract administered apically; CSE indicates cells received 2% CSE extract administered apically and 10 μM ivacaftor administered basolaterally; VX-770 indicates cells received 10 μM ivacaftor administered basolaterally. All data were derived from μOCT images as described herein.
(§1) The μOCT system is a spectral-domain OCT implementation with several improvements to standard OCT that yield high resolution in both lateral and axial directions. The general layout and axial resolution characterization have been described (Liu et al., PLOSOne, 8(1), E54473-2013). A super-continuum source (Fianium SC450) provides the high-bandwidth, short coherence length light necessary for high axial resolution ([…]). […]

Another assay relates to human bronchial tissue. The assay is described as follows: μOCT imaging of airway epithelial function in human bronchial tissue. Here is the method:
FIGS. 6A-6C show the effects of CFTR activators on airway epithelial function in human bronchial tissue by μOCT. FIGS. 6A-6C show ASL depth (FIG. 6A), CBF (FIG. 6B) and MCT (FIG. 6C), respectively in response to ivacaftor treatment (10 μM).
To further investigate the role of CFTR activators in modulating airway epithelial cell function, CFTR activators were studied in combination with human bronchial tissue from a failed healthy donor. Human bronchial tissue was obtained and maintained as described herein. Control experiments were performed with the human bronchial tissue being exposed to DMSO control only (0.2%) and compared to ivacaftor treatment. FIGS. 6A-6C show ASL depth, CBF and MCT, respectively.
Samples of human trachea tissue were obtained from normal donor explant organs not selected for lung transplantation. Lung, mainstem bronchi, and trachea were resected en-bloc, transferred on wet ice, and large airways excised. Airway tissues were then immersed in ice cold DMEM following resection for transfer, then allowed to equilibrate to room temperature prior to mOCT imaging.
as §1
μOCT imaging was performed on various cells cultures with illumination incident on the apical side of the cells. […] ASL and PCL were measured directly from the thicknesses of the visible layers in the image with a correction applied for the index of refraction in the liquid (n=1.33). ASL and PCL were evaluated at 5 equally distributed regions of the image. CBF and MCT were determined from a time series of images. […] Up to 10 regions of ciliary activity per image sequence were assessed for CBF. […]

The structures appear in SMILES notation. “Also recorded” adds a separate entry of the source.

On to `CC(C)(C)c1cc(C(C)(C)C)c(NC(=O)c2c[nH]c3ccccc3c2=O)cc1O` [ivacaftor], for which the MCT entry with HBE cells (2% CSE apically plus ivacaftor 10 μM basolaterally, 24 hrs (FIG. 5D)) is recorded as “increased MCT to that seen in the control cells”; with HBE cells (ivacaftor alone 10 μM basolaterally, 24 hrs, vs control (FIG. 5D, FIG. 2D)), “robust enhancement; also recorded: significantly increased”; in the assay on human bronchial tissue (ivacaftor 10 μM, control less than 0.01 mm/min (FIG. 6C)), approximately 0.04 mm/min. The ASL depth entry was “significantly increased” with HBE cells (2% CSE apically plus ivacaftor 10 μM basolaterally, 24 hrs, vs CSE (FIG. 5B)); “increased ASL depth significantly above control” with HBE cells (ivacaftor 10 μM, vs control wild-type and control CF HBE cells (FIG. 4A)); “significantly increased” in the assay with HBE cells (ivacaftor alone 10 μM basolaterally, 24 hrs, vs control (FIG. 5B)); “approximately 30 microns” in the assay with human bronchial tissue (ivacaftor 10 μM, DMSO control approximately 10 microns (FIG. 6A)). Besides, the PCL depth entry with HBE cells (ivacaftor 10 μM, as compared to control CF HBE cells (FIG. 4B)) is given as “increased”; in the assay with HBE cells (ivacaftor 10 μM, in comparison to control wild-type (FIG. 4B)), “not increased in a statistically significant manner”. In addition, the CBF entry in the assay with HBE cells (ivacaftor 10 μM, as compared to control CF HBE cells (FIG. 4C)) is given as “increased”; with HBE cells (ivacaftor 10 μM, in comparison to control wild-type (FIG. 4C)), “not increased in a statistically significant manner”. In the assay on HBE cells (ivacaftor 10 μM, as compared to control wild-type and control CF cells (FIG. 4D)), the “overall MCT” value is listed as “increased significantly”. The CBF frequency result in the assay with human bronchial tissue (ivacaftor 10 μM vs DMSO control (FIG. 6B)) was “significantly increased”.

(Values after patent publication US10300052B2, “Methods for increasing CFTR activity” (THE UAB RESEARCH FOUNDATION, priority 2012, dated 2019).)
